Experimental data: the NIST ThermoML archive (doi:10.1016/j.jct.2005.03.016)

Conditions: Liquid, Vibrating tube method

CCO [ethanol]
mass density [kg/m3]
Conditions | 100 kPa | 5000 kPa | 10000 kPa | 15000 kPa | 20000 kPa | 25000 kPa | 30000 kPa | 35000 kPa | 40000 kPa | 45000 kPa
283.15 K | 798 | 802 | 805.9 | 809.5 | 813 | 816.4 | 819.7 | 822.8 | 825.9 | 828.8
293.15 K | 789.5 | 793.7 | 797.8 | 801.6 | 805.3 | 808.9 | 812.3 | 815.6 | 818.7 | 821.8
303.15 K | 780.9 | 785.3 | 789.6 | 793.7 | 797.5 | 801.3 | 804.8 | 808.2 | 811.5 | 814.7
313.15 K | 772.1 | 776.8 | 781.3 | 785.6 | 789.6 | 793.5 | 797.2 | 800.8 | 804.2 | 807.6
323.15 K | 763.3 | 768.3 | 773 | 777.6 | 781.8 | 785.9 | 789.7 | 793.5 | 797.1 | 800.5
333.15 K | 754 | 759.3 | 764.3 | 769.1 | 773.6 | 777.8 | 781.9 | 785.8 | 789.5 | 793.1
343.15 K | 744.5 | 750.1 | 755.5 | 760.5 | 765.3 | 769.8 | 774 | 778.1 | 782 | 785.7
353.15 K | – | 740.6 | 746.4 | 751.7 | 756.7 | 761.5 | 766 | 770.2 | 774.3 | 778.2

CC1CCCCC1 [methylcyclohexane]
mass density [kg/m3]
Conditions | 100 kPa | 5000 kPa | 10000 kPa | 15000 kPa | 20000 kPa | 25000 kPa | 30000 kPa | 35000 kPa | 40000 kPa | 45000 kPa
283.15 K | 777.6 | 781.4 | 785.2 | 788.7 | 792.1 | 795.3 | 798.5 | 801.5 | 804.4 | 807.3
293.15 K | 769 | 773 | 777 | 780.7 | 784.3 | 787.8 | 791.1 | 794.2 | 797.3 | 800.2
303.15 K | 760.4 | 764.7 | 768.9 | 772.8 | 776.6 | 780.2 | 783.7 | 787 | 790.2 | 793.3
313.15 K | 751.7 | 756.2 | 760.7 | 764.8 | 768.8 | 772.7 | 776.3 | 779.8 | 783.1 | 786.4
323.15 K | 742.9 | 747.7 | 752.5 | 756.9 | 761.1 | 765.1 | 769 | 772.6 | 776.1 | 779.5
333.15 K | 733.9 | 739 | 744.1 | 748.8 | 753.3 | 757.5 | 761.5 | 765.4 | 769 | 772.5
343.15 K | 724.8 | 730.4 | 735.8 | 740.8 | 745.6 | 750 | 754.2 | 758.2 | 762.1 | 765.7
353.15 K | 715.7 | 721.7 | 727.4 | 732.8 | 737.8 | 742.5 | 747 | 751.2 | 755.2 | 759
